Reference: patent US20050004134A1, “Thiazole derivative and pharmaceutical use thereof” (priority 2001, published 2005)

Key:
ddY mice = assay: Anticatalepsy activity in mouse (haloperidol-induced catalepsy); format: in vivo; conditions: 3.2 mg/kg orally, ddY mice (n=7); haloperidol 0.32 mg/kg i.p. 30 min after compound; measured 30 min after injection, bar test up to 30 sec
Method: Test 2: Anticatalepsy Activity in Mouse
The test compound (3.2 mg/kg) was administered orally with ddY mice(n=7). Then, haloperidol (0.32 mg/kg) was injected intraperitoneally 30 min. after the administration of the compound. Thirty minutes after the injection, the cataleptic responses of mice were measured. The forelimbs of each mouse were placed on a 3 cm high, 3 mm wide horizontal bar, and the duration of cataleptic posture was measured for up to 30 sec.

human A1 receptor = target: T1, human A1 receptor (Homo sapiens, UniProt P30542); assay: Adenosine antagonistic activity, radioligand binding with [3H]DPCPX; conditions: 4.5 nM
T1 sequence (P30542 1-326): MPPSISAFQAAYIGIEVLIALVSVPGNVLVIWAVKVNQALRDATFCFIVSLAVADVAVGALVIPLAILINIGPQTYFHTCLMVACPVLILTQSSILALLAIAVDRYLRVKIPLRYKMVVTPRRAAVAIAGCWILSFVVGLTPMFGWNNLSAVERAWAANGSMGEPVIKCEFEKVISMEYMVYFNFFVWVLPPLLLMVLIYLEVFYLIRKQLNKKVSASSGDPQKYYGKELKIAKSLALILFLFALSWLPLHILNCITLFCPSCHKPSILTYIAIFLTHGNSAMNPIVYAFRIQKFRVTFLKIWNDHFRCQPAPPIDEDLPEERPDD
Method: (§1) Test 1: Adenosine Antagonistic Activity
(§2) The adenosine antagonistic activity [Ki(nM)] of the test compound was examined by radioligand binding techniques using 8-cyclopentyl-1,3-dipropylxanthine, [dipropyl-2,3^−3H(N)] ([3H]DPCPX, 4.5 nM) for human A1 receptor and [3H]CGS 21680 (20 nM) for human A2a receptor.

human A2a receptor = human A2a receptor (Homo sapiens, UniProt P29274); assay: Adenosine antagonistic activity, radioligand binding with [3H]CGS 21680; conditions: [3H]CGS 21680, 20 nM
Method: as §1, §2

human A2a receptor, sequence (P29274 whole entry): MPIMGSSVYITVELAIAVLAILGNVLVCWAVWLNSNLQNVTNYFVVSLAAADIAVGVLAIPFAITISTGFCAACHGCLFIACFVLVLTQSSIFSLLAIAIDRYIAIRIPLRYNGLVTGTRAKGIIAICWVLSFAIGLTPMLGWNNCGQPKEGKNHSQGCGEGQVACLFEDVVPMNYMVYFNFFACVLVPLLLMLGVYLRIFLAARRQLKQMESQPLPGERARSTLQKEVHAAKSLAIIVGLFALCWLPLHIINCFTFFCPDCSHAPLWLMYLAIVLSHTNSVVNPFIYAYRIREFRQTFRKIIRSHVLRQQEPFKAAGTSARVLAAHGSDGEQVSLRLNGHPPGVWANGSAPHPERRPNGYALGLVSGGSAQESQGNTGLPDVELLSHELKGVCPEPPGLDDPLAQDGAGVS

Compound	Manifestation rate of catalepsy (number of mouse) (ddY mice)	Ki (human A1 receptor) [nM]	melting point [°C]	Ki (human A2a receptor) [nM]
CCCCCC(=O)Nc1nc(-c2ccccc2)c(-c2ccc(=O)n(C(C)C)n2)s1 [Example 3, N-[5-(1-Isopropyl-6-oxo-1,6-dihydro-3-pyridazinyl)-4-phenyl-1,3-thiazol-2-yl]hexanamide]	0/7	0.27	129 to 132	1.46
COc1ccc(CC(=O)Nc2nc(-c3ccccc3)c(-c3ccc(=O)n(C(C)C)n3)s2)cc1 [Example 9, N-[5-(1-Isopropyl-6-oxo-1,6-dihydro-3-pyridazinyl)-4-phenyl-1,3-thiazol-2-yl]-2-(4-methoxyphenyl)acetamide]	0/7	0.28	188 to 190	1.22
Cc1cccc(NC(=O)Nc2nc(-c3ccccc3)c(-c3ccc(=O)n(C(C)C)n3)s2)c1 [Example 10, N-[5-(1-Isopropyl-6-oxo-1,6-dihydro-3-pyridazinyl)-4-phenyl-1,3-thiazol-2-yl]-N′-(3-methylphenyl)urea]	–	0.38	242 to 243	3.08
CNc1nc(-c2ccccc2)c(-c2ccc(=O)n(C(C)C)n2)s1 [Example 15, 2-Isopropyl-6-[2-(methylamino)-4-phenyl-1,3-thiazol-5-yl]-3(2H)-pyridazinone]	0/7	0.12	234 to 236	1.63
CC(C)n1nc(-c2sc(NC(=O)c3ccccc3)nc2-c2ccc(F)cc2)ccc1=O [Example 78, N-[4-(4-Fluorophenyl)-5-(1-isopropyl-6-oxo-1,6-dihydro-3-pyridazinyl)-1,3-thiazol-2-yl]-benzamide]	0/7	0.45	228 to 230	1.23
CC(C)n1nc(-c2sc(NC(=O)CNCc3ccncc3)nc2-c2ccccc2)ccc1=O [Example 100, N-[5-(1-isopropyl-6-oxo-1,6-dihydro-3-pyridazinyl)-4-phenyl-1,3-thiazol-2-yl]-2-[(4-pyridinylmethyl)amino]acetamide]	0/7	0.61	187 to 188	1.22
CCNC(=O)c1nc(-c2ccccc2)c(-c2ccc(=O)n(C(C)C)n2)s1 [Example 214, N-ethyl-5-(1-isopropyl-6-oxo-1,6-dihydro-3-pyridazinyl)-4-phenyl-1,3-thiazole-2-carboxamide]	0/7	1.14	172 to 174	1.52
CC(C)n1nc(-c2sc(C(=O)NCc3ccncc3)nc2-c2ccccc2)ccc1=O [Example 233, 5-(1-Isopropyl-6-oxo-1,6-dihydro-3-pyridazinyl)-4-phenyl-N-(4-pyridinylmethyl)-1,3-thiazole-2-carboxamide]	0/7	1.03	192 to 193	1.14
CC(C)n1nc(-c2sc(C(=O)NCCc3ccccn3)nc2-c2ccc(F)cc2)ccc1=O [Example 237, 4-(4-Fluorophenyl)-5-(1-isopropyl-6-oxo-1,6-dihydro-3-pyridazinyl)-N-[2-(2-pyridinyl)ethyl]-1,3-thiazole-2-carboxamide]	–	–	144 to 145	–
CONC(=O)c1nc(-c2ccc(F)cc2)c(-c2ccc(=O)n(C(C)C)n2)s1 [Example 238, 4-(4-fluorophenyl)-5-(1-isopropyl-6-oxo-1,6-dihydro-3-pyridazinyl)-N-methoxy-1,3-thiazole-2-carboxamide]	–	–	164.5 to 166.5	–
CC(C)n1nc(-c2sc(C(=O)NN(C)C)nc2-c2ccc(F)cc2)ccc1=O [Example 239, 4-(4-Fluorophenyl)-5-(1-isopropyl-6-oxo-1,6-dihydro-3-pyridazinyl)-N′,N′-dimethyl-1,3-thiazole-2-carbohydrazide]	–	–	169 to 170.5	–
CC(C)n1nc(-c2sc(C(N)=S)nc2-c2ccccc2)ccc1=O [Example 240, 5-(1-isopropyl-6-oxo-1,6-dihydro-3-pyridazinyl)-4-phenyl-1,3-thiazole-2-carbothioamide]	–	–	> 250	–
